In patent publication US12545637B2, “Extrahepatic targeted cationic lipid compound with high efficiency and low toxicity and its composition” (BEIJING YOUCARE KECHUANG PHARMACEUTICAL TECHNOLOGY CO., LTD., priority 2023, dated 2026):
Where “and” joins values, the source holds several entries; their conditions need not be identical. Identical values can stand only once.

Key:
[1] = Particle size and polydispersity index (PDI) of lipid nanoparticles by dynamic light scattering; format: physicochemical
Experimental: The particle size and polydispersity index (PDI) were determined by dynamic light scattering using Malvern laser particle size analyzer.
10 μL of the liposome solution was weighed, diluted to 1 mL with RNase-free deionized water, and added to the sample pool. Each sample was measured in triplicate. The measurement conditions were: […] scattering angle, and 25° C.

293T cells [2] = assay: Fluorescent detection of Fluc-mRNA (cell transfection efficiency of LNP formulations); format: cell-based
293T cells [3] = assay: Cell survival rate assay (CCK-8); format: cell-based
Method in brief: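 293T cells seeded at 10,000 cells/well, cultured overnight, then exposed 24 h to LNP carrying 1.5 μg Fluc-mRNA (cationic:neutral:structured:PEG-type lipid 49:10:39.5:1.5) or Lipofectamine 3000. Viability read by CCK-8, 1 h incubation, absorbance at 450 nm.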

female BALB/C mice = assay: In vivo imaging in mice of Fluc-mRNA LNP formulations (mRNA expression and duration)
Method in brief: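 Female BALB/C mice (4-6 weeks, 17-19 g) received LNP carrying […] Fluc-mRNA intramuscularly. At 6h, 24 h, 48h and 7d, fluorescent imaging substrate was given intraperitoneally and after 5 minutes average radiance, as a measure of expressed protein, was imaged on an IVIS Spectrum system.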

293T cells [4] = assay: Fluorescent detection of Fluc-mRNA (cell transfection efficiency of LNP formulations); format: cell-based; remark: listed apart in the source

## CCCCCCCCCCCOC(=O)CCCN(CCO)CCN(CCO)CCCCCC(=O)OC(CCCCCCCC)CCCCCCCC [YK-407]
[1]; LNP formulation of the cationic lipid, 25° C.
  PDI: 16.6%
[1]; LNP formulation of the cationic lipid/DSPC/cholesterol/DMG-PEG2000 49:10:39.5:1.5, 25° C.
  Particle size: 162 nm
293T cells [2]; LNP with 0.3 μg Fluc-mRNA, 96-well plate, 24 hours
  Relative light unit (RLU): 20385506 RLU
293T cells [2]; ratio vs YK-415
  cell transfection efficiency, times that of YK-415: 68.40
293T cells [2]; ratio vs YK-417
  cell transfection efficiency, times that of YK-417: 173.81 and 170
293T cells [2]; ratio vs YK-418
  cell transfection efficiency, times that of YK-418: 183.24 and 180
293T cells [2]; ratio vs YK-424
  cell transfection efficiency, times that of YK-424: 7.07
293T cells [2]; ratio vs compound 21
  RLU value, times that of compound 21: 13.49 and 13
293T cells [2]; ratio vs compound 23
  RLU value, times that of compound 23: 14.53 and 15
293T cells [3]; LNP with 1.5 μg Fluc-mRNA, 24 hours, CCK-8
  Cell survival rate: 71.37%
293T cells [3]; difference vs ALC-0315
  cell survival rate higher than ALC-0315: 24.16%
293T cells [3]; difference vs HIMA (HHMA)
  cell survival rate higher than HIMA: 7.10%
293T cells [3]; difference vs Lipofectamine 3000
  cell survival rate higher than Lipofectamine 3000: 49.71%
293T cells [3]; difference vs SM-102
  cell survival rate higher than SM-102: 3.47%
293T cells [3]; difference vs YK-404
  cell survival rate higher than YK-404: 29.25%
293T cells [3]; difference vs YK-405
  cell survival rate higher than YK-405: 29.51%
293T cells [3]; difference vs YK-406
  cell survival rate higher than YK-406: 46.41%
293T cells [3]; difference vs YK-408
  cell survival rate higher than YK-408: 29.06%
293T cells [3]; difference vs YK-409
  cell survival rate higher than YK-409: 25.26%
293T cells [3]; difference vs YK-410
  cell survival rate higher than YK-410: 26.45%
293T cells [3]; difference vs YK-411
  cell survival rate higher than YK-411: 55.04%
293T cells [3]; difference vs YK-412
  cell survival rate higher than YK-412: 17.23%
293T cells [3]; difference vs YK-413
  cell survival rate higher than YK-413: 24.17%
293T cells [3]; difference vs YK-414
  cell survival rate higher than YK-414: 42.62%
293T cells [3]; difference vs YK-415
  cell survival rate higher than YK-415: 10.21%
293T cells [3]; difference vs YK-416
  cell survival rate higher than YK-416: 30.40%
293T cells [3]; difference vs YK-417
  cell survival rate higher than YK-417: 50.03%
293T cells [3]; difference vs YK-418
  cell survival rate higher than YK-418: 50.32%
293T cells [3]; difference vs YK-419
  cell survival rate higher than YK-419: 32.45%
293T cells [3]; difference vs YK-420
  cell survival rate higher than YK-420: 35.78%
293T cells [3]; difference vs YK-421
  cell survival rate higher than YK-421: 35.66%
293T cells [3]; difference vs YK-424
  cell survival rate higher than YK-424: 43.44%
293T cells [3]; difference vs compound 21
  cell survival rate higher than compound 21: 3.53%
293T cells [3]; difference vs compound 23
  cell survival rate higher than compound 23: 2.26%
293T cells [3]; rounded summary statement vs YK-411
  cytotoxicity reduced compared with YK-411: 50% and 55%
Female BALB/C mice; 6 h
  average radiation intensity, times that of ALC-0315: 4.76
  average radiation intensity, times that of HHMA: 6.05
  average radiation intensity, times that of SM-102: 5.79
  average radiation intensity, times that of compound 21: 6.66
  average radiation intensity, times that of compound 23: 6.88
  expression amount in mice, times that of YK-415: 33.96
  expression amount in mice, times that of YK-417: 66.16
Female BALB/C mice; 24 h
  average radiation intensity, times that of ALC-0315: 10.62
  average radiation intensity, times that of HHMA: 16.80
  average radiation intensity, times that of SM-102: 16.34
  average radiation intensity, times that of compound 21: 18.15
  average radiation intensity, times that of compound 23: 19.97
  expression amount in mice, times that of YK-415: 31.25
  expression amount in mice, times that of YK-417: 100.86
  mRNA expression in mice, times that of YK-411: 996.97 and 1000
Female BALB/C mice; 48 h
  average radiation intensity, times that of ALC-0315: 22 and 22.06
  average radiation intensity, times that of HHMA: 27 and 26.55
  average radiation intensity, times that of SM-102: 27 and 26.93
  average radiation intensity, times that of compound 21: 28 and 28.07
  average radiation intensity, times that of compound 23: 27 and 26.89
  expression amount in mice, times that of YK-415: 56.07
  expression amount in mice, times that of YK-417: 125.66 and 120
  mRNA expression in mice, times that of YK-411: 907.99
Female BALB/C mice; 7 d
  average radiation intensity, times that of ALC-0315: 6.90
  average radiation intensity, times that of HHMA: 8.13
  average radiation intensity, times that of SM-102: 7.20
  average radiation intensity, times that of compound 21: 7.59
  average radiation intensity, times that of compound 23: 7.93
  expression amount in mice, times that of YK-415: 11.98
  expression amount in mice, times that of YK-417: 21.20 and 20
  mRNA expression in mice, times that of YK-411: 100.85 and 100
Female BALB/C mice; Fluc-mRNA LNP intramuscular, 6 h after administration
  average radiation intensity, 6 h: 4001500
Female BALB/C mice; Fluc-mRNA LNP intramuscular, 24 h after administration
  average radiation intensity, 24 h: 2015870
Female BALB/C mice; Fluc-mRNA LNP intramuscular, 48 h after administration
  average radiation intensity, 48 h: 885288
Female BALB/C mice; Fluc-mRNA LNP intramuscular, 7 d after administration
  average radiation intensity, 7 d: 48410
293T cells [4]; ratio vs ALC-0315
  RLU value, times that of ALC-0315: 9.31
293T cells [4]; ratio vs HHMA
  RLU value, times that of HHMA: 9.81
293T cells [4]; ratio vs Lipofectamine 3000
  RLU value, times that of Lipofectamine 3000: 16.98
293T cells [4]; ratio vs YK-009
  RLU value, times that of YK-009: 3.96
293T cells [4]; ratio vs YK-405
  RLU value, times that of YK-405: 6.37
293T cells [4]; ratio vs YK-406
  RLU value, times that of YK-406: 260.51
293T cells [4]; ratio vs YK-408
  RLU value, times that of YK-408: 13.83
293T cells [4]; ratio vs YK-409
  RLU value, times that of YK-409: 30.43
293T cells [4]; ratio vs YK-410
  RLU value, times that of YK-410: 49.98
293T cells [4]; ratio vs YK-412
  cell transfection efficiency, times that of YK-412: 6.05
293T cells [4]; ratio vs YK-413
  cell transfection efficiency, times that of YK-413: 14.80
293T cells [4]; ratio vs YK-414
  cell transfection efficiency, times that of YK-414: 45.90
293T cells [4]; ratio vs YK-416
  cell transfection efficiency, times that of YK-416: 5.13
293T cells [4]; ratio vs YK-419
  cell transfection efficiency, times that of YK-419: 6.44
293T cells [4]; ratio vs YK-420
  cell transfection efficiency, times that of YK-420: 5.07
293T cells [4]; ratio vs YK-421
  cell transfection efficiency, times that of YK-421: 43.69
